Assay results published in patent US10703764B2, “Benzopiperazine compositions as BET bromodomain inhibitors” (FORMA Therapeutics, Inc., priority 2013, dated 2020).
pIC50: −log10 of the molar value.

Legend:
[1] = target: T1, BRD4 BD2 (Homo sapiens, UniProt O60885); assay: AlphaScreen binding assay, BRD4 Bromodomain 2
T1 construct: made in house
Experimental: (§1) The binding of Example compounds to BRD4 Bromodomain 1 and BRD4 Bromodomain 2 was assessed using 384-well AlphaScreen assay technology. His-epitope tagged BRD4 BD144-168 and BRD4 BD2333-460 were cloned, expressed, and purified to homogeneity. BRD4 BD1 and BRD4 BD2 binding and inhibition was assessed by monitoring the engagement of biotinylated Histone H4 (1-21) K5/8/12/16 tetra-acetylated peptide with the targets using the AlphaScreen technology (PerkinElmer). Specifically, in a 384-well black or white flat bottom plate, BRD4 BD1 (50 nM final) or BRD4 BD2 (100 nM final) was combined with peptide (50 nM final for BD1 or 100 nM final for BD2) in 50 mM HEPES (pH 7.3), 100 mM NaCl, 0.1% (w/v) BSA, and 0.01% (w/v) Triton X-100 either in the presence of DMSO (final 1.25% DMSO) or compound dilution series in DMSO. Alpha streptavidin donor beads and Nickel-chelate acceptor beads were added to a final concentration of 10 μg/ml each. After a minimum of 1 hour equilibration, plates were read on a BMG PHERAstar FS multi-label reader (BMG LabTech). The half maximal inhibitory concentration (IC50) values were calculated using IDBS Activity Base software with a four parameter logistic curve fit by the equation y=A+((B−A)/(1+((C/x)^D))), wherein A denotes the bottom plateau of the curve, B denotes the top plateau of the curve, C denotes the x value at the middle of the curve, D denotes the slope factor, x denotes the original known x values, and y denotes the original known y values. Data was fitted using the Levenburg Marquardt algorithm.

[2] = target: T2, BRD4 BD1 (Homo sapiens, UniProt O60885); assay: AlphaScreen binding assay, BRD4 Bromodomain 1
T2 construct: made in house
Experimental: as §1

CC(=O)N1c2ccccc2N(Cc2ccc(N(C)C)cc2)C[C@@H]1C [Example I-891]
pIC50 [1]: < 6.30 | pIC50 [2]: < 5.00

COc1ccc(S(=O)(=O)N2C[C@H](C)N(C(C)=O)c3ccccc32)c(C)c1 [Example I-960]
pIC50 [1]: < 6.30 | pIC50 [2]: < 5.00

CC(=O)N1c2ccccc2N(Cc2cccc(Oc3ccccc3)c2)C[C@@H]1C [Example I-918]
pIC50 [1]: < 6.30 | pIC50 [2]: < 5.00

COc1ccc2[nH]c(C(=O)N3CC(C)N(C(C)=O)c4ccc(-c5ccc(S(C)(=O)=O)cc5)cc43)cc2c1 (stereo not shown) [Example I-882]
pIC50 [1]: 6.30 to 7.30 | pIC50 [2]: 5.00 to 6.00

CC(=O)N1c2ccccc2N(Cc2ccc(OC(C)C)cc2)C[C@@H]1C [Example I-917]
pIC50 [1]: < 6.30 | pIC50 [2]: < 5.00

CC(=O)N1c2ccc(-c3cnn(CCS(C)(=O)=O)c3)cc2N(C(=O)C2CC2)CC1C (stereo not shown) [Example I-344]
pIC50 [1]: 6.30 to 7.30 | pIC50 [2]: 5.00 to 6.00

COC(=O)N1c2ccc(-c3cnn(C4CC4)c3)cc2N(C(=O)OC2COC2)C[C@@H]1C [Example I-999]
pIC50 [1]: 6.30 to 7.30 | pIC50 [2]: 5.00 to 6.00

CC(=O)N1c2ccc(-c3c(C)noc3C)cc2N(C(=O)c2ccco2)C[C@@H]1C [Example I-816]
pIC50 [1]: < 6.30 | pIC50 [2]: < 5.00

C[C@H]1CN(C(=O)c2ccco2)c2cc(-c3ccc(S(C)(=O)=O)cc3)ccc2N1C(=O)N1CCCC1 [Example I-376]
pIC50 [1]: < 6.30 | pIC50 [2]: < 5.00

COC(=O)N1c2ccc(-c3cnn(C4CCNCC4)c3)cc2N(C(=O)Oc2ccccn2)C[C@@H]1C [Example I-1333]
pIC50 [1]: 6.30 to 7.30 | pIC50 [2]: 5.00 to 6.00

CC(=O)N1c2ccccc2N(C(=O)Cc2csc3ccc(Cl)cc23)C[C@@H]1C [Example I-739]
pIC50 [1]: < 6.30 | pIC50 [2]: < 5.00

CC(=O)N1c2ccccc2N(S(=O)(=O)c2ccc(C)cc2C)C[C@@H]1C [Example I-949]
pIC50 [1]: < 6.30 | pIC50 [2]: < 5.00

COC(=O)N1c2ccc(-c3ccc(CS(N)(=O)=O)cc3)cc2N(C(=O)C2CC2)C[C@@H]1C [Example I-460]
pIC50 [1]: 6.30 to 7.30 | pIC50 [2]: 5.00 to 6.00

CC(=O)N1c2ccccc2N(C(=O)CCc2ccccc2)C[C@@H]1C [Example I-696]
pIC50 [1]: < 6.30 | pIC50 [2]: < 5.00

CC(=O)N1c2ccc(N(C)c3ccccc3)cc2N(C(=O)c2ccco2)C[C@@H]1C [Example I-992]
pIC50 [1]: < 6.30 | pIC50 [2]: 5.00 to 6.00

CC(=O)N1c2ccccc2N(S(=O)(=O)c2ccccc2Cl)C[C@@H]1C [Example I-942]
pIC50 [1]: < 6.30 | pIC50 [2]: < 5.00

CC(=O)N1c2ccc(-c3cnn(C4COC4)c3)cc2N(C(=O)C2CCOCC2)C[C@@H]1C [Example I-110, (S)-1-(2-methyl-6-(1-(oxetan-3-yl)-1H-pyrazol-4-yl)-4-(tetrahydro-2H-pyran-4-carbonyl)-3,4-dihydroquinoxalin-1(2H)-yl)ethanone]
pIC50 [1]: < 6.30 | pIC50 [2]: < 5.00

CC(=O)N1c2ccccc2N(C(=O)c2ccccc2)C[C@@H]1C [Example I-694]
pIC50 [1]: < 6.30 | pIC50 [2]: < 5.00

CC(=O)N1c2ccccc2N(C(=O)c2cc3cc(Cl)ccc3o2)C[C@@H]1C [Example I-759]
pIC50 [1]: < 6.30 | pIC50 [2]: < 5.00

CC(=O)N1c2ccc(-c3cnn(CCC#N)c3)cc2N(C(=O)Oc2cccnc2)C[C@@H]1C [Example I-1288]
pIC50 [1]: 6.30 to 7.30 | pIC50 [2]: 5.00 to 6.00

CC(=O)N1c2ccc(-c3ncccn3)cc2N(C(=O)c2ccco2)C[C@@H]1C [Example I-383]
pIC50 [1]: 6.30 to 7.30 | pIC50 [2]: 5.00 to 6.00

C[C@H]1CN(C(=O)c2ccco2)c2cc(-c3ccc(S(C)(=O)=O)cc3)ccc2N1C=O [Example I-103, (S)-4-(furan-2-carbonyl)-2-methyl-6-(4-(methylsulfonyl)phenyl)-3,4-dihydroquinoxaline-1(2H)-carbaldehyde]
pIC50 [1]: < 6.30 | pIC50 [2]: < 5.00

COc1cc(CN2C[C@H](C)N(C(C)=O)c3ccccc32)cc(OC)c1 [Example I-902]
pIC50 [1]: < 6.30 | pIC50 [2]: < 5.00

CC(=O)N1c2ccccc2N(Cc2ccc(C(F)(F)F)nc2)C[C@@H]1C [Example I-911]
pIC50 [1]: < 6.30 | pIC50 [2]: < 5.00

CC(=O)N1c2ccc(-c3cncc(Cl)c3)cc2N(C(=O)c2ccco2)C[C@@H]1C [Example I-832]
pIC50 [1]: 6.30 to 7.30 | pIC50 [2]: 5.00 to 6.00

CC(=O)N1c2ccc(-c3ccc(S(C)(=O)=O)cc3)cc2N(C(=O)c2ccccn2)C[C@@H]1C [Example I-782]
pIC50 [1]: 6.30 to 7.30 | pIC50 [2]: < 5.00

CC(=O)N1c2ccc(-c3ccc(S(C)(=O)=O)cc3)cc2N(C(=O)Nc2ccccc2)C[C@@H]1C [Example I-964]
pIC50 [1]: 6.30 to 7.30 | pIC50 [2]: 5.00 to 6.00

CC(=O)N1c2ccc(-c3ccc(S(C)(=O)=O)cc3)nc2N(C(=O)C2CC2)C[C@@H]1C [Example I-301]
pIC50 [1]: < 6.30 | pIC50 [2]: 5.00 to 6.00

CC(=O)N1c2ccc(-c3ccc(-n4cccn4)cc3)cc2N(C(=O)c2ccco2)C[C@@H]1C [Example I-803]
pIC50 [1]: 6.30 to 7.30 | pIC50 [2]: 5.00 to 6.00

CC(=O)N1c2ccc(-c3ccc(S(C)(=O)=O)cc3)cc2N(C(=O)c2ncc[nH]2)CC1C (stereo not shown) [Example I-982]
pIC50 [1]: < 6.30 | pIC50 [2]: 5.00 to 6.00

CC(=O)N1c2ccc(-c3ccc(-c4cc(C(=O)O)[nH]n4)cc3)cc2N(C(=O)c2ccco2)CC1C (stereo not shown) [Example I-421]
pIC50 [1]: > 7.30 | pIC50 [2]: 6.00 to 7.00

CC(=O)N1c2ccc(-c3ccc(S(C)(=O)=O)cc3)cc2N(C(=O)NCC(C)C)C[C@@H]1C [Example I-978]
pIC50 [1]: < 6.30 | pIC50 [2]: < 5.00

CC(=O)N1c2ccc(-c3ccccc3NS(C)(=O)=O)cc2N(C(=O)c2ccco2)C[C@@H]1C [Example I-827]
pIC50 [1]: < 6.30 | pIC50 [2]: < 5.00

CC(=O)N1c2ccccc2N(S(=O)(=O)c2ccccc2C)C[C@@H]1C [Example I-941]
pIC50 [1]: < 6.30 | pIC50 [2]: < 5.00

COCC(=O)N1C[C@H](C)N(C(C)=O)c2ccccc21 [Example I-738]
pIC50 [1]: < 6.30 | pIC50 [2]: < 5.00

CC(=O)N1c2ccc(-c3cnn(C4CC4)c3)cc2N(C(=O)Oc2ccc(Cl)cc2Cl)C[C@@H]1C [Example I-1193]
pIC50 [1]: 6.30 to 7.30 | pIC50 [2]: 5.00 to 6.00

CC(=O)N1c2ccc(-c3cccc(C#N)c3)cc2N(C(=O)c2ccco2)C[C@@H]1C [Example I-812]
pIC50 [1]: > 7.30 | pIC50 [2]: 5.00 to 6.00

CC(=O)N1c2ccc(-c3ccc(S(C)(=O)=O)cc3)cc2N(C(=O)c2ccc(C(F)(F)F)o2)C[C@@H]1C [Example I-887]
pIC50 [1]: 6.30 to 7.30 | pIC50 [2]: < 5.00

CC(=O)N1c2ccccc2N(C(=O)c2ccco2)C[C@@H]1C [Example I-720]
pIC50 [1]: 6.30 to 7.30 | pIC50 [2]: < 5.00

CC(=O)N1c2ccc(-c3ccc(S(C)(=O)=O)cc3)cc2N(c2ccccn2)C[C@@H]1C [Example I-47, (S)-1-(2-methyl-6-(4-(methylsulfonyl)phenyl)-4-(pyridin-2-yl)-3,4-dihydroquinoxalin-1 (2H)-yl)ethan-1-one]
pIC50 [1]: > 7.30 | pIC50 [2]: 5.00 to 6.00

CC(=O)N1c2ccccc2N(S(=O)(=O)Cc2ccccc2)C[C@@H]1C [Example I-954]
pIC50 [1]: < 6.30 | pIC50 [2]: < 5.00

CC(=O)N1c2ccccc2N(S(=O)(=O)Cc2ccc(Cl)cc2)C[C@@H]1C [Example I-962]
pIC50 [1]: < 6.30 | pIC50 [2]: < 5.00

CC(=O)N1c2ccc(-c3cnn(CCS(C)(=O)=O)c3)cc2N(C(=O)Oc2ccccn2)C[C@@H]1C [Example I-1318]
pIC50 [1]: 6.30 to 7.30 | pIC50 [2]: 5.00 to 6.00

COc1cncc(-c2ccc3c(c2)N(C(=O)c2ccco2)C[C@H](C)N3C(C)=O)c1 [Example I-835]
pIC50 [1]: 6.30 to 7.30 | pIC50 [2]: 5.00 to 6.00

CC(=O)N1c2ccc(-c3cccc(-c4ccco4)c3)cc2N(C(=O)c2ccco2)C[C@@H]1C [Example I-855]
pIC50 [1]: > 7.30 | pIC50 [2]: 5.00 to 6.00

CC(=O)N1c2ccc(-c3ccc(C#N)cn3)cc2N(C(=O)c2ccco2)C[C@@H]1C [Example I-392]
pIC50 [1]: 6.30 to 7.30 | pIC50 [2]: 5.00 to 6.00

CC(C)OC(=O)N1C[C@H](C)N(C(=O)C2CC2)c2ccc(-c3cnn(CC(=O)N(C)C)c3)cc21 [Example I-311]
pIC50 [1]: 6.30 to 7.30 | pIC50 [2]: 5.00 to 6.00

COC(=O)N1c2ccc(-c3cnn(CCC#N)c3)cc2N(C(=O)Oc2ccccn2)C[C@@H]1C [Example I-1327]
pIC50 [1]: 6.30 to 7.30 | pIC50 [2]: 5.00 to 6.00

COCCOC(=O)N1C[C@H](C)N(C(C)=O)c2ccc(-c3ccc(S(C)(=O)=O)cc3)cc21 [Example I-249]
pIC50 [1]: < 6.30 | pIC50 [2]: 5.00 to 6.00

CC(=O)N1c2ccc(-c3ccc(S(=O)(=O)C(F)(F)F)cc3)cc2N(C(=O)c2ccco2)C[C@@H]1C [Example I-866]
pIC50 [1]: 6.30 to 7.30 | pIC50 [2]: 5.00 to 6.00

CC(=O)N1c2ccc(-c3ccc(C(F)(F)F)nc3)cc2N(C(=O)c2ccco2)C[C@@H]1C [Example I-837]
pIC50 [1]: 6.30 to 7.30 | pIC50 [2]: 5.00 to 6.00

CC(=O)N1c2ccc(-c3nnc(C)s3)cc2N(C(=O)c2ccco2)C[C@@H]1C [Example I-403]
pIC50 [1]: 6.30 to 7.30 | pIC50 [2]: 5.00 to 6.00

CC(=O)N1c2ccc(-c3cnn(C4COC4)c3)cc2N(C(=O)C(F)F)C[C@@H]1C [Example I-106, (S)-1-(4-acetyl-3-methyl-7-(1-(oxetan-3-yl)-1H-pyrazol-4-yl)-3,4-dihydroquinoxalin-1(2H)-yl)-2,2-difluoroethanone]
pIC50 [1]: 6.30 to 7.30 | pIC50 [2]: < 5.00
